Assays:
Format in all cases: functional, cell-based
HCT-116 = assay: Cytotoxicity in human HCT116 cells assessed as reduction in cell viability after 18 hrs by MTT assay; settings: HCT-116, 18 h
HeLa = assay: Cytotoxicity in human HeLa cells assessed as reduction in cell viability after 18 hrs by MTT assay
CAPAN-1 = assay: Cytotoxicity in human Capan1 cells assessed as reduction in cell viability after 18 hrs by MTT assay; settings: CAPAN-1, 18 h
A549 = assay: Cytotoxicity in human A549 cells assessed as reduction in cell viability after 18 hrs by MTT assay; settings: A549, 18 h

Measured: IC50

CC1(C)c2ccc([nH]2)C2(C)CCCNC(=O)c3cccc(n3)C(=O)NCCCC(C)(c3ccc1[nH]3)c1ccc([nH]1)C(C)(C)c1ccc2[nH]1
10 to 15 µM: HCT-116 | HeLa | CAPAN-1 | A549

CC1(C)c2ccc([nH]2)C2(C)CCCCNC(=O)c3cccc(n3)C(=O)NCCCCC(C)(c3ccc1[nH]3)c1ccc([nH]1)C(C)(C)c1ccc2[nH]1
10 to 15 µM: HCT-116 | HeLa | CAPAN-1 | A549

— ChEMBL document CHEMBL4402539, “Biological effects and activity optimization of small-molecule, drug-like synthetic anion transporters” (Eur J Med Chem, 2019)
